For assay [1], the target named is T1, endogenous glucagon receptor (Rattus norvegicus, UniProt P30082).
T1 construct: Agonistic activity of the test compounds on endogenous glucagon receptor; endogenous in cells; host or cells: primary rat hepatocytes
Put plainly: Agonistic activity on endogenous glucagon receptor (glycogen synthesis rate in primary rat hepatocytes). It is filed as cell-based. The settings on record: inhibition of glycogen synthesis rate, 3 hours, read-out: EC50 GLP-1R Rat hepat. The essentials: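 Primary rat hepatocytes (40,000 cells/well, cultured 24 h) incubated 3 h with compound in KRBH buffer with 0.1% BSA, 22.5 mM glucose and D-[U14C]glucose. 14C incorporated into precipitated glycogen counted, background-subtracted and expressed as % of 0.1% DMSO vehicle (100% CTL). pEC50 from cpm versus log concentration; agonism lowers glycogen synthesis.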

Assay [2] can be described thus: Sub-chronic effects on adiposity/body weight in diet-induced obese mice. It is filed as in vivo, C57BL/6J mice. As to conditions: DIO mice, 5 nmol/kg s.c. twice daily for 31 days. The method, then:
Male C57BL/6J mice (Taconic A/S, Denmark) at an age of 5 weeks were maintained on a 12:12 hour light-dark cycle on a high-fat diet (60% of total energy from fat, D12492, Research Diet Inc.) for 20 weeks. All mice (housed 2 per cage) were then mock-treated for a week to acclimatize the animals to handling and injections. Subsequently, the mice were stratified according to body fat mass (measured by magnetic resonance technique) and body weight into 9 groups (n=9-12). Animals were thereafter treated twice daily with subcutaneous injections (5 ml/kg) of vehicle (25 mM phosphate buffer, pH 7.4) or test substances (5 nmol/kg per administration, in equivalent amount of vehicle) for a total of 31 days. The daily injections were given at the start and at the end of the light phase. Body weight, food and water intake were determined daily throughout the study. The data are presented in Table 6 as mean body weight change±S.E.M. S.E.M. is defined as standard error of the mean and was calculated using the formula: S.E.M.=SD/square root (n), where SD is the standard deviation and n the number of observations (in this case animals/group).
Statistical analyses were performed using Graph Pad Prism version 5. The measured parameters were compared using one-way ANOVA followed by Dunnett's multiple comparison test. Differences were considered statistically significant at p<0.05.

In assay [3] the target is T2, endogenous GLP-1 receptors (Mus musculus, UniProt O35659).
T2 construct: Agonistic activity of the test compounds on endogenous GLP-1 receptors; endogenous in cells
T2 sequence (O35659 22-463): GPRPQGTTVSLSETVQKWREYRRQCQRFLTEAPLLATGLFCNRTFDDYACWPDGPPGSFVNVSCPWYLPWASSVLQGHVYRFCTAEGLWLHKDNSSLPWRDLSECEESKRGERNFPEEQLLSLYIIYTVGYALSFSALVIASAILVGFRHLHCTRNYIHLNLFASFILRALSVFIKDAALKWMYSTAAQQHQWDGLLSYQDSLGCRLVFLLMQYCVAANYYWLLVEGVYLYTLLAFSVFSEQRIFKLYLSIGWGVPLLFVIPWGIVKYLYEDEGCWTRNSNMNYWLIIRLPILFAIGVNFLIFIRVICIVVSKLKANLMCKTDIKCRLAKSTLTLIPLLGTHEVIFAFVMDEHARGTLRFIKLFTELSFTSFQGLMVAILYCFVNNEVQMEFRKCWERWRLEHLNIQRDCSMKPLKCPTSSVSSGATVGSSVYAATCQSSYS
Kind of assay: Agonistic activity on endogenous GLP-1 receptor (cAMP, murine insulinoma cell line). The class given is cell-based. The settings on record: intracellular cAMP, 15 minutes at 26° C.; read-out: EC50 GLP-1R (murine insulinoma cells). The essentials: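 Murine insulinoma cells were exposed 15 min at 26° C in KRBH with 0.1% DMSO to compound or GLP-1 ([…]), then cAMP was measured by AlphaScreen against a standard curve, in quadruplicate. pEC50 came from curve fits; % CTL was normalised to the maximal GLP-1 cAMP response.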

*1 amine or outer side, *2 acyl side, *3 side chain or, on linkers, in order; H or OH if unused. Where a SMILES comes first, the peptide text is derived from it. Side-chain parts run from the residue outwards. [ ]: non-standard residue; d: D form. The star is where a group is joined. γGlu = O=C(O)[C@H](CCC(=O)[*:2])N[*:1]; Palmitoyl = CCCCCCCCCCCCCCCC(=O)*; Aib = CC(C)(N)C(=O)O

T1 sequence (P30082 27-485): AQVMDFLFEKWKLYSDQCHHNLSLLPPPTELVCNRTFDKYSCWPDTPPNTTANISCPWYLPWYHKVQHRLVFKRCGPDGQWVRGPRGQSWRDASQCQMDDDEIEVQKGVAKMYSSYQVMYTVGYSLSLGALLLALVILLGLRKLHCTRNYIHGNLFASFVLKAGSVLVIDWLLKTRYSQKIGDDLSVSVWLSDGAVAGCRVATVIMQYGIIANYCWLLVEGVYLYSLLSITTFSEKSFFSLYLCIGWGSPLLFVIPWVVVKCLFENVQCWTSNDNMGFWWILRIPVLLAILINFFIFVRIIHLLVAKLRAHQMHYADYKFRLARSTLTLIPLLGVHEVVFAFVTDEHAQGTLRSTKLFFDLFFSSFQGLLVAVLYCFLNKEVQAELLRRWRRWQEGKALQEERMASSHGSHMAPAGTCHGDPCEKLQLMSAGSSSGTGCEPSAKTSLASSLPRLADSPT

As to `CCCCCCCCCCCCCCCC(=O)N[C@@H](CCC(=O)NCCCC[C@H](NC(=O)[C@H](CCC(=O)O)NC(=O)[C@H](CC(=O)O)NC(=O)[C@H](CC(C)C)NC(=O)[C@H](Cc1ccc(O)cc1)NC(=O)[C@H](CCCCN)NC(=O)[C@H](CO)NC(=O)[C@H](Cc1ccc(O)cc1)NC(=O)[C@H](CC(=O)O)NC(=O)[C@H](CO)NC(=O)[C@@H](NC(=O)[C@H](Cc1ccccc1)NC(=O)[C@@H](NC(=O)CNC(=O)[C@H](CCC(N)=O)NC(=O)C(C)(C)NC(=O)[C@@H](N)Cc1c[nH]cn1)[C@@H](C)O)[C@@H](C)O)C(=O)N[C@@H](C)C(=O)N[C@@H](C)C(=O)N[C@@H](CCCCN)C(=O)N[C@@H](CC(=O)O)C(=O)N[C@@H](Cc1ccccc1)C(=O)N[C@H](C(=O)N[C@@H](CCC(=O)O)C(=O)N[C@@H](Cc1c[nH]c2ccccc12)C(=O)N[C@@H](CC(C)C)C(=O)N[C@@H](CCC(=O)O)C(=O)N[C@@H](CO)C(=O)N[C@@H](C)C(N)=O)[C@@H](C)CC)C(=O)O` [Compound 15, H-H-Aib-QGTFTSDYSKYLDE-K(Hexadecanoyl-isoGlu)-AAKDFIEWLESA-NH2], the concentration giving a half-maximal response (EC50) (commonly the midpoint of the concentration-response curve) in assay [1] was found to be 0.17 nM; in assay [3], 0.3 nM. Also, the “Mean body weight change” value in assay [2] is given as −10.9%.

Turning to `CCCCCCCCCCCCCCCC(=O)N[C@@H](CCC(=O)NCCCC[C@H](NC(=O)[C@H](CO)NC(=O)[C@H](CC(=O)O)NC(=O)[C@H](CC(C)C)NC(=O)[C@H](Cc1ccc(O)cc1)NC(=O)[C@H](CCCCN)NC(=O)[C@H](CO)NC(=O)[C@H](Cc1ccc(O)cc1)NC(=O)[C@H](CC(=O)O)NC(=O)[C@H](CO)NC(=O)[C@@H](NC(=O)[C@H](Cc1ccccc1)NC(=O)[C@@H](NC(=O)CNC(=O)[C@H](CCC(N)=O)NC(=O)C(C)(C)NC(=O)[C@@H](N)Cc1c[nH]cn1)[C@@H](C)O)[C@@H](C)O)C(=O)N[C@@H](C)C(=O)N[C@@H](C)C(=O)N[C@@H](CCC(=O)O)C(=O)N[C@@H](CC(=O)O)C(=O)N[C@@H](Cc1ccccc1)C(=O)N[C@H](C(=O)N[C@@H](CCC(=O)O)C(=O)N[C@@H](Cc1c[nH]c2ccccc12)C(=O)N[C@@H](CC(C)C)C(=O)N[C@@H](CCC(=O)O)C(=O)N[C@@H](CO)C(=O)N[C@@H](C)C(N)=O)C(C)C)C(=O)O` [Compound 16, H-H-Aib-QGTFTSDYSKYLDS-K(Hexadecanoyl-isoGlu)-AAEDFVEWLESA-NH2] (H-H[Aib]QGTFTSDYSKYLDSK([γGlu-Palmitoyl])AAEDFVEWLESA-NH2), the EC50 stood at 1.85 nM in assay [1] and 0.33 nM in assay [3]. The “Mean body weight change” value in assay [2] is reported as −12.2%.

These data come from patent US10253081B2, “Glucagon analogues” (Zealand Pharma A/S, priority 2012, dated 2019).
